According to US6534498B1, “Protease inhibitors” (SmithKline Beecham Corporation, priority 1999, dated 2003):

Assays:
[1] = target: T1, cathepsin K (Homo sapiens, UniProt P43235); experiment: Determination of cathepsin K proteolytic catalytic activity / inhibition studies (progress curve method, Cbz-Phe-Arg-AMC); assay type: biochemical; conditions: human recombinant enzyme, 100 mM Na acetate pH 5.5, 20 μM substrate, 10% DMSO
T1 sequence (P43235 115-329): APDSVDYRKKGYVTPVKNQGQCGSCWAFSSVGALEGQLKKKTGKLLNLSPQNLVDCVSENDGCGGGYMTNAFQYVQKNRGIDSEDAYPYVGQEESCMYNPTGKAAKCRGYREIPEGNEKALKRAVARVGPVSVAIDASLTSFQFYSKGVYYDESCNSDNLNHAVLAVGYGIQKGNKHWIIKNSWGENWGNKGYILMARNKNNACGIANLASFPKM
Method: Determination of Cathepsin K Proteolytic Catalytic Activity
All assays for cathepsin K were carried out with human recombinant enzyme. Standard assay conditions for the determination of kinetic constants used a fluorogenic peptide substrate, typically Cbz-Phe-Arg-AMC, and were determined in 100 mM Na acetate at pH 5.5 containing 20 mM cysteine and 5 mM EDTA. Stock substrate solutions were prepared at concentrations of 10 or 20 mM in DMSO with 20 μM final substrate concentration in the assays. All assays contained 10% DMSO. […] All assays were conducted at ambient temperature. Product fluorescence (excitation at 360 nm; emission at 460 nm) was monitored with a Perceptive Biosystems Cytofluor II fluorescent plate reader. […]
Potential inhibitors were evaluated using the progress curve method. […] For those compounds whose progress curves were linear, apparent inhibition constants (Ki,app) were calculated according to equation 1 (Brandt et al., Biochemitsry, 1989, 28, 140): […]
[AMC]=vsst+(v0−vss)[[…]]/kobs (2) where [AMC] is the concentration of product formed over time t, v0 is the initial reaction velocity, and vss is the final steady state rate. Values for kobs were then analyzed as a linear function of inhibitor concentration to generate an apparent second order rate constant (kobs/inhibitor concentration or kobs/[I]) describing the time-dependent inhibition. […]

[2] = test system: osteoclasts (osteoclastoma-derived cell suspensions); experiment: Human osteoclast resorption assay (pit assay on dentine slices); assay type: cell-based; conditions: 48 hours, pit volumes
Method: Human Osteoclast Resorption Assay
Aliquots of osteoclastoma-derived cell suspensions were removed from liquid nitrogen storage, warmed rapidly at 37° C. and washed ×1 in RPMI-1640 medium by centrifugation (1000 rpm, 5 min at 4° C.). The medium was aspirated and replaced with murine anti-HLA-DR antibody, diluted 1:3 in RPMI-1640 medium, and incubated for 30 minutes on ice. The cell suspension was mixed frequently.
The cells were washed ×2 with cold RPMI-1640 by centrifugation (1000 rpm, 5 min at 4° C.) and then transferred to a sterile 15 mL centrifuge tube. The number of mononuclear cells were enumerated in an improved Neubauer counting chamber.
Sufficient magnetic beads (5/mononuclear cell), coated with goat anti-mouse IgG, were removed from their stock bottle and placed into 5 mL of fresh medium (this washes away the toxic azide preservative). The medium was removed by immobilizing the beads on a magnet and is replaced with fresh medium.
The beads were mixed with the cells and the suspension was incubated for 30 minutes on ice. The suspension was mixed frequently. […]
The TRAP positive osteoclasts were enumerated by bright-field microscopy and were then removed from the surface of the dentine by sonication. Pit volumes were determined using the Nikon/Lasertec ILM21W confocal microscope.

Ki [1]: 0.41 nM
IC50 [2]: 300 nM
Structure (SMILES): CC(C)C[C@H](NC(=O)c1ccc2ccccc2n1)C(=O)NC1CCCN(S(=O)(=O)c2cccc[n+]2[O-])CC1=O (stereo partly drawn) [Example 1, Quinoline-2-carboxylic acid {(S)-3-methyl-1-[3-oxo-1-(1-oxy-pyridine-2-sulfonyl)-azepan-4-ylcarbamoyl]-butyl}amide]
